Where two headings read alike, the source gives them in different places.
Legend:
A549 cells [1] = conditions: human, 2 days
HIV = experiment: microbe, parasite or virus in culture; assay type: cell-based, HIV-1
A549 cells [2] = experiment: Cytotoxicity evaluation using the SRB assay; conditions: Table 1; inhibition of cell growth of host A549 cells by 50%; triplicate
HIV clinical strains = conditions: background statement; read-out: EC50 against broad HIV clinical strains; cited from earlier work

Compound	CC50 (A549 cells [1]) [µM]	EC50 (HIV) [µM]	CC50 (A549 cells [2]) [µM]	EC50 (HIV; read-out: EC50) [µM]	EC50 (HIV clinical strains) [µM]
COc1cc2c(OC3OCC(O)(CO)C3O)c3c(c(-c4cc5c(cc4O)OCO5)c2cc1OC)C(=O)OC3 (single isomer, unassigned) [Compound 48]	> 25	> 25	–	–	–
COc1cc2c(OC3OCC(O)(CO)C3OC3OCC(O)C(O)C3O)c3c(c(-c4cc5c(cc4O)OCO5)c2cc1OC)C(=O)OC3 (single isomer, unassigned) [Compound 50]	> 25	23.1	–	–	–
COc1cc2c(OC3OCC(O)(COC4OCC(O)C(O)C4O)C3OC3OCC(O)C(O)C3O)c3c(c(-c4cc5c(cc4O)OCO5)c2cc1OC)C(=O)OC3 (single isomer, unassigned) [Compound 52]	–	> 25	> 25	–	–
COc1cc2c(OC3OCC(O)(COC4OCC(O)C(O)C4O)C3OC3OCC(O)C(OC4OCC(O)(CO)C4O)C3O)c3c(c(-c4cc5c(cc4O)OCO5)c2cc1OC)C(=O)OC3 (single isomer, unassigned) [Compound 54]	> 25	> 25	–	–	–
COc1cc2c(O[C@@H]3OC[C@](O)(CO)[C@H]3O)c3c(c(-c4ccc5c(c4)OCO5)c2cc1OC)C(=O)OC3 [Tuberculatin (1), tuberculatin]	–	–	3.27	0.22	–
Cc1cn([C@H]2C[C@H](N=[N+]=[N-])[C@@H](CO)O2)c(=O)[nH]c1=O [Zidovudine (AZT), Zidovudine]	–	–	–	–	0.077 to 0.095

Source: patent publication US20240076299A1, “TUBERCULATIN ANALOGS AS ANTIVIRAL AGENTS” (priority 2020, published 2024)
